# Laboratory results taken from patent US12104169B2, “Chemical reprogramming to generate neuronal cells” (The J. David Gladstone Institutes, a testamentary trust …, priority 2015, dated 2024).
# Where a name gives a salt, the structure may show the parent alone.
# How the values were obtained:
# [1] = tested on: tdMEFs; experiment: Combinatorial chemical screening for neural reprogramming of tdMEFs (Sox2/Nestin co-expression); format: cell-based, mouse; details: for generation of Sox2/Nestin double-positive cells: added to the six-molecule condition; for Sox2/Nestin double-positive cells: primary screening, single molecule added to basal condition (LDN, A83, CHIR, bFGF), ten days post-treatment
# Experimental: (§1) Cells were washed once with 1×PBS and fixed with 4% paraformaldehyde at room temperature for 10 minutes, followed by permeabilization with 0.2% Triton X-100 in 1×PBS for 10 min, and blocking with 7.5% BSA for at least 1 hour. All primary antibodies were diluted in 1×PBS with 7.5% BSA, and the incubation was performed at 4° C. overnight. The cells were washed with 1×PBS five times for 10 min each at room temperature. The secondary antibodies, labeled with Alexa-488, Alexa-555, and Alexa-647, were purchased from Invitrogen, and were diluted into 1×PBS with 7.5% BSA. Incubation with the secondary antibodies was for 1 hour at room temperature, followed by five 10-minute washes with 1×PBS. The nuclei were stained with DAPI. Living cell staining was used for cell-surface marker O4, as described by Najm et al. (Nat. Biotechnol. 31: 426-433 (2013)). Antibodies used in this study are listed below in Table 1.
# Briefly, tdMEFs were plated into neural reprogramming basal medium at 15,000 cells per well in 24-well plate, and after an overnight culture, individual small molecules from a focused chemical collection, including epigenetic modifiers, metabolism regulators, and signaling modulators, were added. Ten days post-treatment, cells were fixed, immune-stained, and analyzed for co-expression of Sox2 and Nestin, two typical NSC markers (FIG. 1A-1B).
# [2] = tested on: ciNSLC-derived neurons; format: cell-based, mouse
# [3] = tested on: Hedgehog (Hh) signaling; details: read-out: EC50 activation of Hedgehog (Hh) signaling; cited from earlier work
# [4] = tested on: tdMEF; experiment: M9 chemical conversion of tdMEFs to ciNSLCs (Sox2/Nestin immunostaining); format: cell-based, mouse; details: FIG. 2G
# Experimental: To convert the fibroblasts into ciNSLCs, MEFs were seeded into Matrigel (Corning, 1:40 dilution)-coated 24-well plates at 15,000 per well, or 1-1.5 million in 15-cm dishes in MEF medium (Dulbecco's modified Eagle's medium supplemented with 10% FBS, 0.1 mM nonessential amino acids, and 2 mM Glutamax) for the first 24 hours. […] M9 medium was refreshed every other day. After a 10-day induction, cells were cultured in neural stem cells medium (NSC medium). Afterwards, the cells could be repeatedly propagated in NSC medium.
# as §1, with “Antibodies used in this study are listed below in Table 1.” left out
# [5] = molecular target: Smoothened (Smo) receptor (Homo sapiens, UniProt Q99835); details: cited from earlier work
# Chain of Smoothened (Smo) receptor (Q99835 28-787): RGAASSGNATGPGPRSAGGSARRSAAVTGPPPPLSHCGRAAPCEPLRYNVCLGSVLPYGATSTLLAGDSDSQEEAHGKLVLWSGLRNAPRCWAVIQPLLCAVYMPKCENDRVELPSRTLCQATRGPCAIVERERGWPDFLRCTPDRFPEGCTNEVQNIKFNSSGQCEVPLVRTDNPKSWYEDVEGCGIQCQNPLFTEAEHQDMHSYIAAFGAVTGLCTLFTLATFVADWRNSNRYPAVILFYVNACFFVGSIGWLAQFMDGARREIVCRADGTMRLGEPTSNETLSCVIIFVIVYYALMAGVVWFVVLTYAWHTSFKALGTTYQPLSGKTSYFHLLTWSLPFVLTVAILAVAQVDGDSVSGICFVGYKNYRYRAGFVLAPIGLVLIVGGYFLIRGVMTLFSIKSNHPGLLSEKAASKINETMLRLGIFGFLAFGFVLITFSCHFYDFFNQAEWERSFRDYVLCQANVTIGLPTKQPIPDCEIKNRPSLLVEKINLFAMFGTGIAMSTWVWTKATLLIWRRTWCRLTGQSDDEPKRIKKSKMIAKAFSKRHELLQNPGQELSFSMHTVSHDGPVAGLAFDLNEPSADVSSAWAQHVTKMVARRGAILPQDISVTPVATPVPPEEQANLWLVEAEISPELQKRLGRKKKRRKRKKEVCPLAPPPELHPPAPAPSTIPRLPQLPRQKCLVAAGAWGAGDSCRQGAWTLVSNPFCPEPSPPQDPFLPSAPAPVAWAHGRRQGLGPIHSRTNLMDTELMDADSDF
# [6] = tested on: Hedgehog signaling pathway in Shh-light 2 cells; details: read-out: EC50 activation of Hedgehog signaling pathway; cited from earlier work
# [7] = tested on: tdMEF; experiment: Inhibitor assay: pathway inhibitors added to M9 reprogramming; format: cell-based, mouse; details: Sox2+/Nestin+ cells at day 10
# Experimental: When performing the reprogramming, small molecule inhibitors, including 0.5 μM PD0325901, 10 μM SP 600125, 5 μM SB203580, 5 μM LY294002, or 2 μM LDE 225, was added in the freshly made M9 culture medium. DMSO was used in basal medium as control. The medium was changed every 2 days, and the Sox2+/Nestin+ cells were analyzed by immunostaining by day 10 after treatment.
# [8] = molecular target: SAPK2/p38 (Homo sapiens, UniProt Q16539); details: CK1 and ALK5 inhibitor versus SAPK2/p38; cited from earlier work
# Chain of SAPK2/p38 (Q16539 whole entry): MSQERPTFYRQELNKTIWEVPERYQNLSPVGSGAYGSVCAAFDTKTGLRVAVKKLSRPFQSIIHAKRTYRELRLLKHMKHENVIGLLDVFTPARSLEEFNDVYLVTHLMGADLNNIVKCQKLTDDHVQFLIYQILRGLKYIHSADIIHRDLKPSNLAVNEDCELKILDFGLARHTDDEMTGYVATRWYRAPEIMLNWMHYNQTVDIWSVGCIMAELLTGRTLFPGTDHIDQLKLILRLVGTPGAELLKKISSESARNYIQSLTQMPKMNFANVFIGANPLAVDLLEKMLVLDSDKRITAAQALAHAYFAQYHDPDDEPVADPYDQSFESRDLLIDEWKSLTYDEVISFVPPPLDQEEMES
# [9] = tested on: A53T alpha-synuclein clearance in PC-12 cells; details: independent of rapamycin treatment; cited from earlier work
compound,measurement,setting,value
"N[C@@H]1C[C@H]1c1ccccc1 (racemic) [Parnate, tranylcypromine sulfate]",generation of Sox2/Nestin double-positive cells,[1],further enhanced
NC1=N[C@H](O)[C@H]2[C@H]3O[C@]4(O)O[C@@H]([C@@H](O)[C@@]2(N1)[C@@H]4O)[C@]3(O)CO [tetrodotoxin],inactivating inward current,[2],blocked
"CC(C)CCC[C@](C)(O)[C@H]1CC[C@H]2[C@@H]3CC=C4C[C@@H](O)CC[C@]4(C)[C@H]3CC[C@@]21C [(3β)-Cholest-5-ene-3,20-diol]",EC50,[3],~3000 nM
CC1=C(/C=C/C(C)=C/C=C/C(C)=C/C(=O)O)C(C)(C)CCC1 [retinoic acid],Sox2/Nestin double-positive cells,[1],1.26%
"CNC1CCC(N(Cc2cccc(-c3ccncc3)c2)C(=O)c2sc3c(F)ccc(F)c3c2Cl)CC1 (stereo not shown) [Hh-Ag 1.5, 3-chloro-4,7-difluoro-N-(4-(methylamino)cyclohexyl)-N-(3-(pyridin-4-yl)benzyl)benzo[b]thiophene-2-carboxamide]",Sox2/Nestin double-positive cells,[1],3.68%
same,reprogramming efficiency when the component is removed from the M9 cocktail,[4],affected the ciNSLC induction most
"CN[C@H]1CC[C@H](N(Cc2cccc(-c3ccncc3)c2)C(=O)c2sc3ccccc3c2Cl)CC1 [SAG, 3-Chloro-N-[trans-4-(methylamino)cyclohexyl]-N-[[3-(4-pyridinyl)phenyl]methyl]benzo[b]thiophene-2-carboxamide]",Kd,[5],59 nM
same,EC50,[6],~3 nM
O=C(NOC[C@H](O)CO)c1ccc(F)c(F)c1Nc1ccc(I)cc1F [PD0325901],reduction of reprogramming efficiency,[7]; 0.5 μM added to M9 medium,about 9 fold
Cc1c(C(=O)Nc2ccc(N3C[C@@H](C)O[C@@H](C)C3)nc2)cccc1-c1ccc(OC(F)(F)F)cc1 [LDE-225],reduction of reprogramming efficiency,[7]; 2 μM added to M9 medium,about 6 fold
"NC(=O)c1ccc(-c2nc(-c3ccc4c(c3)OCCO4)c(-c3ccccn3)[nH]2)cc1 [D 4476, 4-[4-(2,3-Dihydro-1,4-benzodioxin-6-yl)-5-(2-pyridinyl)-1H-imidazol-2-yl]benzamide]",selectivity over SAPK2/p38,[8],greater than 20 fold
C[S+]([O-])c1ccc(-c2nc(-c3ccc(F)cc3)c(-c3ccncc3)[nH]2)cc1 (stereo not shown) [SB203580],reduction of reprogramming efficiency,[7]; 5 μM SB203580 added to M9 medium,~5 fold
O=c1cc(N2CCOCC2)oc2c(-c3ccccc3)cccc12 [LY294002],reduction of reprogramming efficiency,[7]; 5 μM LY294002 added to M9 medium,~4 fold
"C=CCNc1ncnc2ccc(Br)cc12 [SMER28, 6-bromo-N-2-propenyl-4-quinazolinamine]",generation of Sox2/Nestin double-positive cells,[1],further enhanced
same,A53T alpha-synuclein clearance,[9],enhances
bFGF: basic fibroblast growth factor (bFGF; also known as FGF2),reprogramming efficiency when the component is removed from the M9 cocktail,[4],affected the ciNSLC induction most
CC[N+](CC)(CC)CC [tetraethylammonium],persistent outward current,[2],blocked
Oc1c2ccccc2c2c3c(cccc13)N=N2 [SP600125],reduction of reprogramming efficiency,[7]; 10 μM added to M9 medium,~6 fold
"O=C(O)[C@@H](Cc1c[nH]c2ccccc12)N1C(=O)c2ccccc2C1=O (stereo in doubt) [RG108, N-Phthalyl-L-tryptophan]",generation of Sox2/Nestin double-positive cells,[1],further enhanced
